Here are results for one compound from patent US20090011013A1, “Tacrolimus Combination Products” (LIFECYCLE PHARMA A/S, priority 2005, published 2009).

Broadly, the bioavailability is dose-corrected exposure relative to a reference, in per cent.

For series [1] the following is noted: cited from earlier work.
The conditions of series [2]: rats, cited from earlier work.
Series [3] has as its system Canine Lung Allotransplantation. The note with it: dogs, cited from earlier work.
Series [4] in a line: three-way crossover pilot bioavailability study of Prograf and Neoral combinations vs. Prograf. It is filed as in vivo, human.
For series [5] the following is noted: cited from earlier work. The source holds these as a separate data set.
For series [6] the following is noted: oral, cited from earlier work.

Each structure is given as a SMILES string. Like-named read-outs stand apart in the source and are kept apart here.

Regarding `C=CC[C@@H]1/C=C(\C)C[C@H](C)C[C@H](OC)[C@H]2O[C@@](O)(C(=O)C(=O)N3CCCC[C@H]3C(=O)O[C@H](/C(C)=C/[C@@H]3CC[C@@H](O)[C@H](OC)C3)[C@H](C)[C@@H](O)CC1=O)[C@H](C)C[C@@H]2OC` [Tacrolimus], the bioavailability is not above 20% in series [1] (after oral administration), approximately 25% in series [2] (intestinal administration) and “about 40%” in series [2] (intraportal administration (infusion over 1 hour)). Further, the “mean time-to-peak concentration (tmax)” value in series [1] (oral, healthy subjects or kidney or liver transplanted patients) is 1 to 2 h. The hepatic extraction ratio in series [2] (calculated) is given as 60%. The intestinal extraction in series [2] (calculated) was 34%. In series [3] (group E vs group C), the “blood concentration of tacrolimus, combination vs alone at same dose” value was “not significant higher”. In addition, the immunosuppressive effect entry in series [3] (i.m. 0.03 mg/kg/day (suboptimal dose)) was “rejection”; in series [3] (i.m. 0.1 mg/kg/day (optimal dose)), “adequate immunosuppression”. Also, the “increase in tacrolimus bioavailability” value in series [4] (tacrolimus and cyclosporine in a ratio of 1:20) is “above 100%”. In series [4] (tacrolimus and cyclosporine in the ratio of 1:2), the “increase of bioavailability of tacrolimus” value came to 30%. The solubility in chloroform result in series [5] (chloroform) is listed as “very soluble”. In series [5] (ethanol), the solubility in ethanol result is “freely soluble”. In addition, the solubility in methanol result in series [5] (methanol) is listed as “very soluble”. Besides, the solubility in water result in series [5] (water) is on record as “practically insoluble”. Also, the “time to reach peak” value in series [6] (most patients) was not above 1 h; in series [6] (some patients), not below 4 h.
